Experimental data reported in BindingDB's records for doi:10.1016/j.bmcl.2007.10.101 (Solvay Pharmaceuticals, 2008).

Molecular target: Neuronal acetylcholine receptor subunit alpha-4 (Rattus norvegicus, UniProt P09483)
Sequence (P09483 whole entry): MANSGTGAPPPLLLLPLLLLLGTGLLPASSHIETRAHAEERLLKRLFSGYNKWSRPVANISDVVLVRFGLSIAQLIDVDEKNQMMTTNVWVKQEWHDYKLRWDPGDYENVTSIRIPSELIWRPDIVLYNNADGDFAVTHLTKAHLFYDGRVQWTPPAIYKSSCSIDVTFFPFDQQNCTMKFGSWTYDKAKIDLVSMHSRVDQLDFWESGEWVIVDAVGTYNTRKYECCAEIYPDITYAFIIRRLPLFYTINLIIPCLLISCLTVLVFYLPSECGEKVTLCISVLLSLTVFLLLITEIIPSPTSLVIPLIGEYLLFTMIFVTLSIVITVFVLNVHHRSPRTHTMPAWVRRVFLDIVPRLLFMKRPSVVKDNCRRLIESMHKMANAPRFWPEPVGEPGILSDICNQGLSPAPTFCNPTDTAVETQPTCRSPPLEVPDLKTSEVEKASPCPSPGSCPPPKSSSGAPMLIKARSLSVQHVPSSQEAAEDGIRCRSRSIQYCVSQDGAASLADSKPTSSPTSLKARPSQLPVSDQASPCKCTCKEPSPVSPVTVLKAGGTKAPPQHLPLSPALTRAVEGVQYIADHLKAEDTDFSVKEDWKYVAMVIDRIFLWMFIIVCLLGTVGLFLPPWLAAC

c1cnc2[nH]c(C3CCCNC3)cc2c1 (stereo unspecified) [CAS_24759729]
Ki: > 10 µM
